Source: patent US9346832B2, “Gold complexes for use in the treatment of cancer” (University of Kwazulu-Natal, priority 2010, dated 2016)
“Also recorded” adds a separate entry of the source.

How the values were obtained:
[1] = system: human cancer cell lines; test: Cytotoxicity summary (NCI-60 or independent cytotoxicity screen), Scheme 19; type: cell-based
[2] = target: T1, topoisomerase I (Homo sapiens, UniProt P11387); test: Topoisomerase I poison/inhibitor EB gel assay; type: biochemical; conditions: compared with CPT (camptothecin)
T1 sequence (P11387 1-765): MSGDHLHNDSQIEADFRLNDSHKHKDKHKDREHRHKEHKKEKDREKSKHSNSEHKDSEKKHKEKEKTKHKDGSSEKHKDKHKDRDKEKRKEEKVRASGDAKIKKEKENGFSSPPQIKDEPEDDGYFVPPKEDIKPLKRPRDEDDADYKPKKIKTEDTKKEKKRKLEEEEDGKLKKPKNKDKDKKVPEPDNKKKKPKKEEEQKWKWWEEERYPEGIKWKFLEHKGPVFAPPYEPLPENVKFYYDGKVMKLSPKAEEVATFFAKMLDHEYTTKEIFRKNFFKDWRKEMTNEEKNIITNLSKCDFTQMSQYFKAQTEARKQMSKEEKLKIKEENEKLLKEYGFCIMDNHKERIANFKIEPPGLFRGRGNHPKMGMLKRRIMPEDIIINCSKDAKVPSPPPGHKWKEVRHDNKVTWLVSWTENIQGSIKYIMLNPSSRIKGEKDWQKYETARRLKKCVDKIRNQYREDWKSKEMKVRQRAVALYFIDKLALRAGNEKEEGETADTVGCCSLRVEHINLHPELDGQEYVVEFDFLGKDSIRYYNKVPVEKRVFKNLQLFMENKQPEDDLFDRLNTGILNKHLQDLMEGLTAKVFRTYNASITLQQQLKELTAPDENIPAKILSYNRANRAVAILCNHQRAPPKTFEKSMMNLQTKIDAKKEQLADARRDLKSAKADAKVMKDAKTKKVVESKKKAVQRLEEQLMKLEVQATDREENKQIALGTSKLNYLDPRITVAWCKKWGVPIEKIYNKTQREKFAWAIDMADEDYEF
Experimental: The compound MA_AuPr clearly targets topoisomerase II if the statistical analysis of the NCI data for a range of drugs shown in FIG. 13 is correct. MA_AuPr was therefore assayed for its action against topoisomerase II in vitro using TopoGEN's standard protocol over a wide range of test agent concentrations (0.005 to 500 μM) in order to obtain direct experimental proof for the apparent cellular target of the compound to ensure that a fundamental understanding of the mechanism of action of this new class of Au(III) compounds exists. These experiments were performed by the company TopoGEN and at the University of Central Florida. The DNA cleavage experiments were performed in vitro using purified topoisomerase I and II enzymes and supercoiled plasmid DNA as the substrate. The controls that were used in the experiment were linear marker DNA as well as reactions without the gold(III) complex and high concentrations of VP16. The compound VP16 (etoposide) is a commercially available DNA intercalator chemotherapeutic agent, widely used in the treatment of lung and testicular cancers as well as lymphomas. […]

[3] = system: calf thymus DNA; test: Calf-thymus DNA titration (absorption hypochroism); type: binding; conditions: MA series: pH 7.0 phosphate buffer at 37° C.
Experimental: FIG. 20 is a graph of the titration of MA_AuPr (1.1a) with calf-thymus DNA in aqueous pH 7 phosphate buffer at 37° C.
The hypochroism of the absorption band of the complex at 383 nm was monitored as a function of added ctDNA. […] Ka is the equilibrium binding constant in M^−1, Ct is the total Au(III) complex concentration, and s is the binding site size.

[4] = Genotoxicity
Excerpt: First, the compound is not genotoxic (i.e. mutagenic).

[5] = system: 3LL tumor (Lewis lung carcinoma); test: 3LL tumor growth in black mice

With `C1=NCCCN=Cc2ccc[n]2[Au+][n]2cccc21.[Cl-]` [MA_AuPr, 2,2′-{propane-1,3-diylbis[nitrilo(E)methylylidene]}bis(pyrrol-1-ido)gold(III) chloride] the Cytotoxicity [1] was “active”, the “activity against topoisomerase I” value [2] was “inactivity; also recorded: not a topoisomerase I poison” and the “Ka (calf thymus DNA)” value [3] was 2.05(2) × 10^5 M^−1. For the same compound, the Genotoxicity [4] was “not genotoxic; also recorded: Negative”, the “in vivo performance relative to cisplatin” value ([5]; 3LL tumors, 20 days) was “about 43%” and the “reduction of 3LL tumor growth rate relative to control” value ([5]; after 20 days, 20 μmol/kg twice weekly) was “about 33%”.
